# Measured values reported in patent publication EP0234113A1, “2,3-Dihydro-1H-phenalene-2-amino compounds as anti-psychotic drugs” (THE UPJOHN COMPANY, priority 1985, dated 1987).
# Where a name gives a salt, the structure may show the parent alone.
# Test system: body temperature
# Assay: Hypothermia Test (effect on body temperature)
# Assay type: in vivo, CF-1 male mice
# Settings: Mus musculus, ip, 0.75 h, read-out: hypothermia, calculated ED50
# Method: The Effect on Body Temperature (Hypothermia) Test and the Antagonism of Apomorphone-Induced Case Climbing (ACC), (Apomorphine Gnawing Test) are described on page 1398 of the publication, Journal of Medicinal Chemistry, Vol. 22, No. 11, pp. 1390-1398, in an article entitled "6-Aryl-4H-s-triazolo[4,3-a][1,4]benzodiazepines....Action" by J. B. Hester, Jr., et al.
# For the tests here, the Hypothermia Test procedure was run as follows:
# A group of four CF-1 male mice (18-22 g each) was injected intraperitoneally with the test compound prepared in 0.25 percent w/v methylcellulose in water solution. After 45 min, abdominal temperature of each mouse was measured using a thermister probe. A control group of four mice was treated with vehicle only and the temperature of the control group was taken in a similar manner. A compound was considered to have a significant effect on body temperature if the mean temperature in the test compound treated group deviated more than 3.5°C from the mean temperature of the parallel control group. Stimulants tend to elevate temperatures; depressants tend to lower body temperature.
row,Compound,ED50 [mg/kg]
1,"CCCN(CCC)C1Cc2cccc3cc(O)cc(c23)C1 (racemic) [(15), (±)2-(N,N-di-n-propylamino)-2,3-dihydro-lH-phenalen-5-ol]",1

# Same assay, conditions: either test: hypothermic or apomorphine antagonism
row,Compound,active in either the hypothermic or the apomorphine antogonism test
1,"1-[2-(N,N-dimethylamino)-2,3-dihydro-1H-phenalen-y-yl]-ethan-1-ol hydrochloride [(10)]",active
2,"5-[2-(N,N-dimethylamino)-2,3-dihydro-1H-phenalen-2-yl]azetidine hydrochloride [(13)]",active
3,"6-chloro-N,N-di-n-propyl-2,3-dihydro-lH-phenalen-2-ylamine hydrochloride [(51)]",active
4,"6-chloro-N,N-dimethyl-2,3-dihydro-lH-phenalen-2-amine hydrochloride [(52)]",active
5,"CCCN(CCC)C1Cc2cccc3cc(O)cc(c23)C1 (racemic) [(15), (±)2-(N,N-di-n-propylamino)-2,3-dihydro-lH-phenalen-5-ol]",active
6,"CCCN(CCC)C1Cc2cccc3cc(O)cc(c23)C1.Cl (racemic) [(16), (±)2-(N,N-di-n-propylamino)-2,3-dihydro-1H-phenalen-5-ol hydrochloride]",active
7,"CCCN(CCC)C1Cc2cccc3cc(O)cc(c23)C1 (racemic) [(17), (±)2-(N,N-di-n-propylamino)-2,3-dihydro-lH-phenalen-5-ol hydrobromide salt]",active
8,"CCCN(CCC)C1Cc2cccc3cc(O)cc(c23)C1 (single isomer, unassigned; (+)) [(33), (+)-2-(N,N-di-n-propylamino)-2,3-dihydro-lH-phenalen-5-ol hydrobromide]",active
9,"CCCN(CCC)C1Cc2cccc3cc(O)cc(c23)C1 (single isomer, unassigned; (-)) [(34), (-)-2-(N,N-di-n-propylamino)-2,3-dihydro-lH-phenalen-5-ol hydrobromide]",active
10,"CN(C)C1Cc2cccc3c(Br)ccc(c23)C1 (centres unmarked) [(2), 6-Bromo-N,N-dimethyl-2,3-dihydro-lH-phenalen-2-amine hydrochloride]",active
11,"CN(C)C1Cc2cccc3c(O)ccc(c23)C1 (centres unmarked) [(3), 2-(N,N-dimethylamino-2,3-dihydro-lH-phenalen-6-ol hydrochloride]",active
12,CCCN(CCC)C1Cc2cccc3c(Br)ccc(c23)C1 (centres unmarked) [(4)],active
13,"CN(C)C1Cc2cccc3cccc(c23)C1 [(7), N,N-dimethyl-2,3-dihydro-lH-phenalen-2-amine hydrochloride]",active
14,"CCCN(CCC)C1Cc2cccc3c(O)ccc(c23)C1 (centres unmarked) [(9), 2-(N,N-di-n-propylamino)-2,3-dihydro-lH-phenalen-6-ol hydrochloride]",active
15,"CN(C)C1(N2CCC2)Cc2cccc3cccc(c23)C1 [(11), 1-[2-(N,N-dimethylamino)-2,3-dihydro-1H-phenalen-2-yl]azetidine]",active
16,"Brc1ccc2c3c(cccc13)CC(N1CCC1)C2 (centres unmarked) [(12), 1-[6-bromo-2,3-dihydro-1H-phenalen-2-yl]azetidine]",active
17,"CNC1Cc2cccc3c(C(C)=O)ccc(c23)C1 (centres unmarked) [(14), N-methyl-6-acetyl-2,3-dihydro-lH-phenalen-2-amine hydrochloride]",active
18,"CCCN(CCC)C1Cc2cccc3cc(OCc4ccccc4)cc(c23)C1 (centres unmarked) [(18), [2-(N,N-di-n-propylamino)-2,3-dihydro-lH-phenalen-5-yl]-a-benzyl ether]",active
19,"CN(C)C1Cc2cccc3c(C(=O)c4ccccc4)ccc(c23)C1 (centres unmarked) [(19), [2-(N,N-dimethylamino)-2,3-dihydro-1H-phenalen-6-yl]phenone maleate salt]",active
20,"CNC1Cc2cccc3c(C(=O)c4ccccc4)ccc(c23)C1 (centres unmarked) [(20), [2-(N-methylamino)-2,3-dihydro-lH-phenalen-6-yl]phenone methanesulfonate salt]",active
21,"CNC1Cc2cccc3c(OCc4ccccc4)ccc(c23)C1 (centres unmarked) [(21), [2-(N-methylamino)-2,3-dihydro-lH-phenalen-6-yl]benzyl ether, p-toluene sulfonate salt]",active
22,"CN(C)C1Cc2cccc3c(OCc4ccccc4)ccc(c23)C1 (centres unmarked) [(22), [2-(N,N-dimethylamino)-2,3-dihydro-1H-phenalen-6-yl]benzyl ether hydrochloride]",active

row,Compound,active in either the hypothermic or the apomorphine antogonism test
1,"CN(C)C1Cc2cccc3cc(O)cc(c23)C1 (centres unmarked) [(23), 2-(N,N-dimethylamino)-2,3-dihydro-lH-phenalen-5-ol]",active
2,"COc1ccc2cccc3c2c1CC(N)C3 (centres unmarked) [(24), 4-methoxy-2,3-dihydro-lH-phenalen-2-amine]",active
3,"CCCN(CCC)C1Cc2cccc3ccc(OC)c(c23)C1 (centres unmarked) [(25), N,N-di-n-propyl-4-methoxy-2,3-dihydro-lH-phenalen-2-amine hydrochloride]",active
4,"Brc1ccc2c3c(cccc13)CC(N1CCCC1)C2 (centres unmarked) [(26), 1-[6-bromo-2,3-dihydro-lH-phenalen-2-yl]pyrrolidine]",active
5,"NC1Cc2cccc3c(Br)ccc(c23)C1 (centres unmarked) [(27), 6-bromo-2,3-dihydro-lH-phenalen-2-ylamine hydrochloride]",active
6,"CCCN(CCC)C1Cc2cccc3ccc(O)c(c23)C1 (centres unmarked) [(28), 2-(N,N-di-n-propylamino)-2,3-dihydro-1H-phenalen-4-ol hydrobromide]",active
7,"Brc1ccc2c3c(cccc13)CC(N1CCCCC1)C2 (centres unmarked) [(29), 1-[6-bromo-2,3-dihydro-1H-phenalen-2-yl]piperadine]",active
8,"COc1ccc2cccc3c2c1CC(N(C)C)C3 (centres unmarked) [(31), N,N-dimethyl-4-methoxy-2,3-dihydro-lH-phenalen-2-ylamine maleate salt]",active
9,"COc1ccc2cccc3c2c1CC(N(C)C)C3 (centres unmarked) [(35), N,N-dimethyl-4-methoxy-2 ,3-dihydro-lH-phenalen-2-ylamine hydrochloride]",active
10,"CN(C)C1Cc2cccc3ccc(O)c(c23)C1 (centres unmarked) [(36), 2-(N,N-dimethylamino)-2,3-dihydro-lH-phenalen-4-ol hydrobromide]",active
11,"CCCN(CCC)C1Cc2cccc3cc(OC(C)=O)cc(c23)C1 (centres unmarked) [(37), [2-(N,N-di-n-propylamino)-2,3-dihydro-lH-phenalen-5-yl]acetate ester]",active
12,"NC1Cc2cccc3cc(OCc4ccccc4)cc(c23)C1 (centres unmarked) [(38), [2-amino-2,3-dihydro-lH-phenalen-5-yl]-a-benzyl ether hydrochloride]",active
13,"CN(C)C1Cc2cccc3c(C(=O)c4ccccc4)ccc(c23)C1 (centres unmarked) [(39), [2-(N,N-dimethylamina-2,3-dihydro-1H-phenalen-6-yl]phenone maleate salt, hydrochloride]",active
14,"CNC1Cc2cccc3c(OCc4ccccc4)ccc(c23)C1 (stereo not drawn) [(41), [2-(N-methylamino)-2,3-dihydro-1H-phenalen-6-yi]-α-benzyl-ether p-toluenesulfonate salt monohydrate]",active
15,"CCCN(CCC)C1Cc2cccc3cc(OC(=O)C(C)(C)C)cc(c23)C1 (centres unmarked) [(44), 2-(N,N-di-n-propylamino)-2,3-dihydro-lH-phenalen-5-ol, 2,2-dimethylpropyl ester hydrochloride]",active
16,"CCCN(CCC)C1Cc2cccc3cc(OC(=O)c4ccccc4)cc(c23)C1 (centres unmarked) [(45), [2-(N,N-di-n-propylamino)-2,3-dihydro-lH-phenalen-5-yl]benzoate ester hydrochloride]",active
17,"CCCCCCC(=O)Oc1cc2c3c(cccc3c1)CC(N(CCC)CCC)C2 (centres unmarked) [(46), [2-(N,N-di-n-propylamino)-2,3-dihydro-1H-phenalen-5-yl]heptanoate ester hydrochloride]",active
18,"CCCN(CCC)C1Cc2cccc3cc(OC(=O)OCC)cc(c23)C1 (centres unmarked) [(47), [2-(N,N-di-n-propylamino)-2,3-dihydro-lH-phenalen-5-yl]-ethyl carbonate (ester)]",active
19,"CCCN(CCC)C1Cc2cccc3cc(OC(=O)Cc4ccccc4)cc(c23)C1 (stereo not drawn) [(48), [2-(N,N-di-n-propylamino)-2,3-dihydro-1H-phenalen-5-yl]-α-phenylacetate ester hydrochloride, 0.5 H2O hydrate]",active
20,"Cl.NC1Cc2cccc3cc(Cl)cc(c23)C1 (centres unmarked) [(50), 5-chloro-2,3-dihydro-1H-phenalen-2-ylamine hydrochloride]",active
21,"CCCN(CCC)C1Cc2cccc3cccc(c23)C1 [(53), N,N-di-n-propyl-2,3-dihydro-lH-phenalen-2-amine hydrochloride]",active
